Laboratory results reported in PubChem BioAssay (NCI).
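96-well plates; 48 h exposure; 5 concentrations. Endpoints by linear interpolation between flanking doses. Not reached: highest tested concentration assigned. Here, GI50 denotes the concentration required for 50% inhibition of growth. TGI: total growth inhibition.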

Columns and labels:
Assay in all cases: NCI tumour cell line growth inhibition, 48 h
[1] = test system: CAKI-1 renal
[2] = test system: HOP-92 NSCLC
[3] = test system: SR leukemia
[4] = test system: NCI-H460 lung
[5] = test system: NCI-H23 lung
[6] = test system: SF-295 CNS
[7] = test system: MDA-MB-435
[8] = test system: EKVX NSCLC
[9] = test system: SK-MEL-2 melanoma
[10] = test system: NCI-H522 lung

Structure (SMILES)	TGI [1] [µM]	TGI [2] [µM]	TGI [3] [µM]	TGI [4] [µM]	TGI [5] [µM]	TGI [6] [µM]	TGI [7] [µM]	TGI [8] [µM]	TGI [9] [µM]	TGI [10] [µM]	GI50 [2] [µM]	GI50 [3] [µM]	GI50 [5] [µM]	GI50 [6] [µM]	GI50 [7] [µM]	GI50 [8] [µM]	GI50 [9] [µM]	GI50 [10] [µM]	GI50 [1] [µM]	GI50 [4] [µM]
CC1OC(OC2C(OC3C[C@@]4(C)C(C[C@H](O)[C@H]5[C@H](C6(C)CCC(C(C)(C)O)O6)CCC54C)[C@]4(C)CC[C@@H](O)C(C)(C)C34)OC(CO)C(O)C2O)C(O)C(O)C1O (stereo partly specified) (tested in a mixture with another compound)	> 100	> 100	> 100	> 100	> 100	> 100	> 100	> 100	> 100	> 100										
O=C(c1ccc(O)cc1)c1ccc(C(=O)c2ccc(O)cc2)cc1		> 100	> 100		> 100	> 100	> 100	> 100	> 100	> 100	8.04	> 100	75.3	6.06	> 100	8.33	> 100	8.05		
O=C1C2C(C(=O)[N]1[Hg][c]1ccccc1)C1(Cl)C(Cl)=C(Cl)C2(Cl)C1(Cl)Cl (stereo unspecified)	4.99	3.97	3.46	12.4	3.32	36		25.2	3.15	0.531	1.87	0.41	1.49	12.4		6.91	1.49	0.203	1.67	2.61
Cc1cc[c-]cc1.Fc1c[c-]c(-c2ccccn2)c(F)c1.N#CCC[PH+](CCC#N)c1ccccc1.[Pt+2]	14.1	8.05	10	10.1	12.9	29.8	6.75	22.3	6.57	5.58	2.14	2.22	3.45	3.91	2.47	3.09	2.41	1.96	2.7	3.05
CC(C)C(/C=C/c1ccccc1)=N\NC(=O)N/N=C(/C=C/c1ccccc1)C(C)C	30.6	91.3	87.2	33.4	> 100	> 100		45.8	52	58.6										
COc1ccc(-c2nnc3n(C)c(=O)c4ccccc4n23)cc1O	> 100	61.5	> 100	> 100	> 100	13	0.221	> 100	37.5	1.98	1.31	0.1	3.01	1.05	0.065	14.1	0.14	0.0827	1.06	0.172
Cc1ccc(C(=O)Nc2ccc(CN3CCN(C)CC3)c(C(F)(F)F)c2)cc1C#Cc1cncc2ncccc12	2.52	1.28	7.78	5.02	15.1	16.2	1.56	16.7	0.599	15.6	0.147	0.63	0.894	1.2	0.286	1.12	0.191	0.323	0.222	0.428
Cc1cc(-c2ccccc2)c(C)n1Cc1ccc(Cl)cc1	> 100	9.28	26.7	> 100	> 100	9.33	2.55		19.5	9.26	1.51	0.592	8.24	2.74	0.368		4.24	2.57	3.66	3.75
O=C1Nc2ccccc2C12CC(c1ccccc1)=NN2 (stereo unspecified)	> 100	9.43	34.8	> 100	> 100	> 100	4.5		46.5	76	1.65	3.64	9.07	4.84	1.66		5.46	4.66	7.57	3.94
CN(C)CCCNC(=O)c1cc2c3ccccc3[nH]c2c2ncccc12	56.5	57.3	67.1	38.6	29.2	28	23.4	85.4	31.7	37.7	14.2	14.5	14.6	7.49	11.1	15.3	13.8	14.5	7.83	6.37
COc1cc2c(cc1OCCCCC(=O)Nc1ccc(-c3nc4ccccc4s3)cc1)N=C[C@@H]1CCCN1C2=O	5.96	4.63	9.48	3.6		3.37	3.45	5.52	4.22	2.65	1.72	0.548		0.556	1.76	2.45	1.95	0.972	2.2	1.67
CC(=O)OC1CCC2(C)C(CCC3C2CCC2(C)C(C4=CC(=O)OC4)CCC32)C1 (stereo unspecified)	33.1	22.6	10.9	11	14.5		33.5		34.4	3.99	2.93	0.468	3.46		4.2		7.72	1.53	11.2	0.681
OC(COc1ccc(Cl)cc1Cl)CN1CCCC1 (stereo unspecified)	> 100	> 100	> 100	> 100	> 100	> 100	> 100	> 100	> 100	> 100										
Cc1sc2nc(-c3ccccn3)c(/C=N/N=C(N)N)n2c1C	18.3	15.8	> 100	36.2	15.3	16.9	10.1	19.8	21.4	13.3	7.55	> 100	6.37	8.77	4.53	8.63	7.99	5.18	9.11	13.6
O=C(Cc1ccc(/C=C/C(=O)c2ncc[nH]2)cc1)Nc1ccc(Br)cc1	8.48	> 16.7	12.9	8.66	8.5	6.19	15.6	> 16.7	> 16.7	7.34	6.74	0.608	2.2	2.09	3.7	4.58	> 16.7	2.76	2.92	2.77
CN(C)c1nc(N(C)C)nc(N(C)CN(C)c2nc(N(C)C)nc(N(C)C)n2)n1	> 100	> 100	> 100	> 100	> 100	> 100		> 100	> 100	> 100										
COc1ccc(S(=O)(=O)O)cc1NS(=O)(=O)c1ccc(C)cc1	> 100		> 100	> 100	> 100	> 100	> 100	> 100	> 100	> 100										
Nc1c(C(=O)Nc2cccc3ccccc23)sc2nc3c(cc12)CCCC3	> 100	9.29	6.38	> 100	> 100	> 100		> 100	> 100	4.6	0.0769	0.267	3.43	0.621		4.47	1.04	0.417	5.9	2.98
CCC[CH2][Sn]1([CH2]CCC)[O]C(=O)C[S]1	3.47	3.95	7.09	16.9	2.64	13		6.53	2.33	0.814	1.84	1.13	1.28	3.61		2.46	0.975	0.212	0.759	4.09
BrP(NC1CCCCCC1)(c1ccccc1)(c1ccccc1)c1ccccc1	13		> 100		27.4	12.2	7.63	35.4	8.53	8.5										
O=C1C=C(N2CC2)c2ccccc2C1=O		3.41	4.78	3.89	7.17	3.12	2.23		4.34	2.93	1.63	1.21	1.84	1.63	0.778		2.28	1.42		1.71
O=S(=O)(NC(=S)Nc1ccccc1)c1ccc(N2N=C3c4ccccc4CC3C2c2ccc(Cl)cc2)cc1 (stereo unspecified)	91.4	40.2	36.6	60		> 100	> 100	60.5	47.9	38.6	18.1	14.7		35.5	44.8	27.4	23.4	18.1	26.1	22.2
O=C1OCC2=C1C(c1cccc(F)c1)c1cc3c(cc1N2CCO)OCCO3 (stereo unspecified)	> 50	> 50	> 50	> 50	> 50	> 50		> 50	> 50	2.58	2.07	0.078	0.35	0.134		0.306	0.276	0.0418	0.144	0.187
N/C(=N\OC(=O)NC(Cl)=C(Cl)Cl)c1cc(C(F)(F)F)cc(C(F)(F)F)c1	33.8	35.1	26.2	36.8	> 100	34.8	48.5	27												
Cn1c(=O)c(C(c2ccccc2)c2c(O)c3ccccc3n(C)c2=O)c(O)c2ccccc21	> 100	> 100	> 100	> 100	> 100	> 100		> 100	> 100	> 100										
CC(=O)OCCC/C(=C\c1ccc2ccccc2c1)[N+](=O)[O-]	3.28	3.17	> 100	8.62	4.65	4.55	3.77		3.62	1.77	1.44	1.67	1.79	1.96	1.53		1.71	0.353	1.5	2.91
C#CCOCn1cnc2ncnc(Cl)c21	> 100	> 100	> 100	> 100	> 100	> 100		> 100	> 100	> 100										
CC12C=CC(C)(O1)C1C2c2ccccc2S1(=O)=O (stereo unspecified)	> 100	> 100	> 100	> 100	> 100	> 100	> 100	> 100		> 100	58.6	15.6	46.6	> 100	52.1	92.9		33.6	82	> 100
Cn1cc(-c2csc(-c3cn(CCN4CCOCC4)c4ccc(F)cc34)n2)c2cccnc21		9.12	6.9	> 100	7.89	7.15	10.5	26.6	7.28	6.63	2.39	2.29	2.47	2.35	2.77	2.52	2.53	2.11		3.39
O=C(CCCn1ccnc1[N+](=O)[O-])NCCn1cnc([N+](=O)[O-])c1	> 100		> 100	> 100	> 100	> 100	> 100	> 100	> 100	> 100										
